One may read the IC50 as the concentration that gives 50% inhibition. Read a low IC50 as inhibition by little substance.

In test [1] the target is T1, human MetAP2 enzyme (Homo sapiens, UniProt P50579). Description: MetAP2 enzyme assay, MetAP2 enzyme complexed with manganese ions. As to conditions: MetAP2 Mn pIC50, 10 μM MnCl2; -log(IC50), IC50 molar.
Test [2] concerns the target T1, human MetAP2 enzyme. Description: MetAP2 enzyme assay, MetAP2 enzyme complexed with cobalt ions. As to conditions: MetAP2 Co pIC50, 10 μM CoCl2; -log(IC50), IC50 molar.

T1 sequence (P50579 whole entry): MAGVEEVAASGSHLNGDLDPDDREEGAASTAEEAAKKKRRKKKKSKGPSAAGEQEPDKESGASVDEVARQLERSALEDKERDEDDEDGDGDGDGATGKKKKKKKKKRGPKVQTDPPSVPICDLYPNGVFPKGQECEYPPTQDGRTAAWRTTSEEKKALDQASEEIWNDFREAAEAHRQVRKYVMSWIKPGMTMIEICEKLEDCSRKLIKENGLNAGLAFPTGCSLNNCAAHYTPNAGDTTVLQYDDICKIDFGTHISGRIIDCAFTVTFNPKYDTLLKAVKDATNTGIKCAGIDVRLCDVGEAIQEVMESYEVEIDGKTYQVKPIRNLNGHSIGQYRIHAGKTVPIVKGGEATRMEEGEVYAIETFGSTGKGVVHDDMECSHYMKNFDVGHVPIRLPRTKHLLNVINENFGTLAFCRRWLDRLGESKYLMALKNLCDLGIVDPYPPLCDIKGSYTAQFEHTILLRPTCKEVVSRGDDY

With `Cc1nc(NC[C@@H](O)CO)ncc1-n1c2ccc(F)cc2c2[nH]ncc21` [Example 86, (2R)-3-((5-(7-Fluoropyrazolo[4,3-b]indol-4(1H)-yl)-4-methylpyrimidin-2-yl)amino)propane-1,2-diol], the values for the IC50 on human MetAP2 enzyme [1] and against human MetAP2 enzyme [2] were 12.6 nM and 7.94 nM, respectively.
On to `Cc1nc(N2C[C@H]3C[C@H]3[C@@H]2C(N)=O)ncc1-n1c2ccc(F)cc2c2[nH]ncc21` [Example 135, (1R,2R,5S)-3-(5-(7-Fluoropyrazolo[4,3-b]indol-4(1H)-yl)-4-methylpyrimidin-2-yl)-3-azabicyclo[3.1.0]hexane-2-carboxamide], for which the IC50 on human MetAP2 enzyme [1] and on human MetAP2 enzyme [2] was 5.01 nM in each case.
As to `O=C(c1ccc(Cn2c3ccc(F)cc3c3[nH]ncc32)cc1)N1CCOCC1` [Example 52, (4-((7-Fluoropyrazolo[4,3-b]indol-4(1H)-yl)methyl)phenyl)(morpholino)methanone], the IC50 against human MetAP2 enzyme [1] was 50.1 nM; on human MetAP2 enzyme [2], 31.6 nM.
On the same counts, the results for `Cc1nc2[nH]c(=O)[nH]c2cc1-n1c2ccc(F)cc2c2[nH]ncc21` [Example 87, 6-(7-Fluoropyrazolo[4,3-b]indol-4(1H)-yl)-5-methyl-1H-imidazo[4,5-b]pyridin-2(3H)-one] are 10 nM and 7.94 nM.
On the same counts, the results for `Cc1nc(N2CC[C@H](C(N)=O)C2)ncc1-n1c2ccc(F)cc2c2[nH]ncc21` [Example 21, (3S)-1-(5-(7-Fluoropyrazolo[4,3-b]indol-4(1H)-yl)-4-methylpyrimidin-2-yl)pyrrolidine-3-carboxamide] are 7.94 nM and 15.8 nM.
As to `Cn1nc(C(=O)NCCO)cc1-n1c2ccc(F)cc2c2[nH]ncc21` [Example 88, 5-(7-Fluoropyrazolo[4,3-b]indol-4(1H)-yl)-N-(2-hydroxyethyl)-1-methyl-1H-pyrazole-3-carboxamide], the IC50 is 10 nM against human MetAP2 enzyme [1] and 25.1 nM on human MetAP2 enzyme [2].
On the same counts, the results for `CN1CCN(c2cc(-n3c4ccc(F)cc4c4[nH]ncc43)ccn2)CC1` [Example 8, 7-Fluoro-4-(2-(4-methylpiperazin-1-yl)pyridin-4-yl)-1,4-dihydropyrazolo[4,3-b]indole] are 5.01 nM and 25.1 nM.
With `CCN1CCn2ncc(-n3c4ccc(F)cc4c4[nH]ncc43)c2C1` [Example 112, 4-(5-Ethyl-4,5,6,7-tetrahydropyrazolo[1,5-a]pyrazin-3-yl)-7-fluoro-1,4-dihydropyrazolo[4,3-b]indole], the IC50 on human MetAP2 enzyme [1] was 20 nM; against human MetAP2 enzyme [2] it was 12.6 nM.
Taken in the same sequence, the figures for `Cc1nc(C(=O)NC2(CO)CC2)ccc1-n1c2ccc(F)cc2c2[nH]ncc21` [Example 100, 5-(7-Fluoropyrazolo[4,3-b]indol-4(1H)-yl)-N-(1-(hydroxymethyl)cyclopropyl)-6-methylpicolinamide] were 12.6 nM and 12.6 nM.
On the same counts, the results for `Cn1nccc1-n1c2ccc(F)cc2c2[nH]ncc21` [Example 46, 7-Fluoro-4-(1-methyl-1H-pyrazol-5-yl)-1,4-dihydropyrazolo[4,3-b]indole] are 20 nM and 20 nM.
On the same counts, the results for `Cc1nc(CCS(C)(=O)=O)ccc1-n1c2ccc(F)cc2c2[nH]ncc21` [Example 133, 7-Fluoro-4-(2-methyl-6-(2-(methylsulfonyl)ethyl)pyridin-3-yl)-1,4-dihydropyrazolo[4,3-b]indole] are 6.31 nM and 10 nM.
For the compound `CCn1cnc2cc(-n3c4ccc(F)cc4c4[nH]ncc43)c(C)nc21` [Example 30, 4-(3-Ethyl-5-methyl-3H-imidazo[4,5-b]pyridin-6-yl)-7-fluoro-1,4-dihydropyrazolo[4,3-b]indole], the results for the IC50 against human MetAP2 enzyme [1] and against human MetAP2 enzyme [2] were 6.31 nM and 3.98 nM, respectively.
Taken in the same sequence, the figures for `Cc1nc(N2CCC(F)CC2)ncc1-n1c2ccc(F)cc2c2[nH]ncc21` [Example 57, 7-Fluoro-4-(2-(4-fluoropiperidin-1-yl)-4-methylpyrimidin-5-yl)-1,4-dihydropyrazolo[4,3-b]indole] were 12.6 nM and 25.1 nM.

The record behind these values is patent US9475816B2, “Substituted-1,4-dihydropyrazolo[4,3-b]indoles” (TAKEDA PHARMACEUTICAL COMPANY LIMITED, priority 2012, dated 2016).
